The values that follow come from US11925643B2, “Toll-like receptor 4 (TLR4) inhibitors and use thereof” (MOR RESEARCH APPLICATIONS LTD., priority 2018, dated 2024).

Experiment [1] has as its system TLR4 signaling. The note with it: primary murine macrophages; cited from earlier work.
Experiment [2] concerns TLR4-driven inflammatory response. The note with it: mice, cited from earlier work.
Experiment [3] deals with primary cardiomyocytes. Put plainly: CK and LDH release by primary cardiomyocytes under hypoxia (MI like). It is filed as cell-based, Rat. Conditions: 20 μM. The protocol:
(§1) Rat hearts (1-2 days old) were removed under sterile conditions and washed three times in phosphate-buffered saline (PBS) to remove excess blood cells. The hearts were minced and then gently agitated in RBD (a solution of proteolytic enzymes (Biological Institute, Ness-Ziona, Israel) prepared from fig tree extract, and diluted 1:100 in Ca^2+- and Mg^2+-free PBS) for a few cycles of 10 min each. Dulbecco's modified Eagle's medium (Biological Industries, Kibbutz Beit Haemek, Israel) containing 10% horse serum was added to supernatant suspensions containing the dissociated cells. The mixture was centrifuged at 1400 rpm for 4 min. The supernatant phase was discarded, and the cells were re-suspended. The cell suspension was diluted to 1.0×10^6 cells/ml, unless stated otherwise, and 1.5 ml of the suspension was placed in 35-mm plastic culture dishes collagen- or gelatin-coated, or on coated cover glasses. The cultures were incubated in a humidified atmosphere of 5% CO2 and 95% air at 37° C.
Using a vacuum pump, the oxygen rich air was evacuated from an incubator containing plates with cell cultures, and a 100% Argon atmosphere was let in, while maintaining a temperature of 37° C. The cell cultures were washed with PBS twice to remove glucose from the medium. Hypoxic treated cells were cultures in PBS without glucose. These cells lasted for 180 minutes.
(§2) Primary cardiomyocytes which were obtained by method described above, were treated with exemplary decoy peptides described herein. After 30 minutes of incubation, sepsis like (LPS treatment for 6 hours), or myocardial infarction (MI) like (hypoxia for 3 hours) conditions were imposed to measure the release of CK and LDH to the medium and determine the potential cardioprotective effect of the tested decoy peptides. Cytotoxicity and level of cell damage were assessed by spectrophotometric measurement of lactate dehydrogenase (LDH) and creatine kinase (CK) activities (at 30° C.). Results are presented as CK and LDH release in arbitrary units (a.u.)
(§3) Activity of LDH and CK was determined in the cell-culture medium (25 μl) transferred into 96-well plates, using commercial L-LDH/CK kits (such as those manufactured, e.g., by Sigma-Aldrich, BioVision™ or Thermo Fisher Scientific®).
(§4) Primary cardiomyocytes were treated with peptides and peptidomimetics of SEQ ID NOs:1-7 provided at concentrations ranging from 1 μM to 20 μM. Following 30 minutes of incubation, sepsis like (LPS treatment for 6 hours) or MI like (hypoxia for 3 hours) conditions were induced to determine the potential cardioprotective effect of the tested compounds. Creatine kinase (CK) and lactate dehydrogenase (LDH) activity were assayed to determine the level of cellular damage and cell protection effect. The experimental procedure is described in Materials and Methods above. Results are presented as CK and LDH release in arbitrary units (a.u.).
(In general: LDH in the medium is a marker of cell lysis.)

Experiment [4] concerns primary cardiomyocytes. Put plainly: CK and LDH release by primary cardiomyocytes under LPS treatment (sepsis like). It is filed as cell-based, Rat. The note with it: LPS treatment; 20 μM. The protocol: as §1, §2, §3, §4
Experiment [5] relates to TLR4 mRNA. The experiment is described as follows: TLR4 mRNA level by RT-qPCR in hypoxic cardiomyocytes. Format: cell-based. The note with it: hypoxic conditions. The protocol: (§5) Real-time RT-PCR experiments were performed in duplicates on an ABI 7900 instrument (Applied Biosystems™) using Taqman™ Master Mix (Applied Biosystems™). The average threshold cycles (Ct) of the duplicates were used to calculate the relative expression levels of the following genes: TLR4 (Applied Biosystems™ assay primer ID: Mm00569848_m1 Tlr4), TLR2 (assay primer ID: Mm01769726_m1 Tlr2), TNF-α (assay primer ID: Mm00443260_g1 Tnf) and IL-1β (assay primer ID: Mm00434228_m1 II1b) in vitro and in vivo following hypoxia or ischemia, respectively. The reference gene was TBP and the primer used was derived from mouse TATA-box binding protein (Applied Biosystems™ assay primer ID: Mm00446973_m1 Tbp). Amounts of TLR2, TLR4, TNF-α and IL-1β mRNAs in each sample were calculated relative to TBP mRNA, based on the corresponding Cts, as Relative Quantity (RQ) values, and normalized taking as 1 a randomly selected sample of the control group (TBP mRNA). Calculation were performed using the Applied Biosystems Analysis™ software (StepOnePlus V2.2.2). All mRNA scores are presented in arbitrary units.
Next, peptidomimetics of SEQ ID NOs:1 and 2 were tested for their ability to affect the expression of TLR4. The level of TLR4 mRNA was measured by real-time reverse transcriptase polymerase chain reaction (RT-qPCR) method as described in Materials and Methods. The possible effect of both compounds on expression levels of TLR2 mRNA was used as a negative control.

Experiment [6] deals with IL-1β mRNA. Put plainly: IL-1β mRNA level by RT-qPCR in hypoxic cardiomyocytes. It is filed as cell-based. The note with it: hypoxic conditions. The protocol:
as §5, with “Calculation were performed using the Applied Biosystems Analysis™ software (StepOnePlus V2.2.2). All mRNA scores are presented in arbitrary units.” left out
Decoy peptides represented by compounds PM1-PM10 were tested in vitro for their ability to decrease the level of CK and LDH released by stressed cardiomyocytes following exposure to LPS or hypoxic stimulation, and further evaluated for their ability to affect the level of IL-1β and TLR4 mRNA, and expression of IκB and TLR4 proteins, according to the protocols described in Materials and Methods and in Example 5 herein above.

No end group written: not given here.

As for “IVFAEMPCG (Ac-IVFAEMPCG) [prior art decoy peptide derived from the TRAM TIR domain (Piao et al., 2013); used N-acetylated as positive control]”, the TLR4 signaling entry in experiment [1] was “inhibited”. Moreover, in experiment [2], the “LPS-induced activation of MyD88-dependent and TRIF-dependent cytokines and MAPKs” value is “inhibited”. Moreover, the survival result in experiment [2] (lethal LPS dose) is recorded as “dramatically improving”. In experiment [2] (sublethal dose of LPS), the circulating cytokine levels result is reported as “significantly diminishing”.

As to `Cc1cn(Cc2ccccc2)c(=O)nc1NCCC(C)C` [PM2, 1-benzyl-4-(isopentylamino)-5-methylpyrimidin-2(1H)-one], the values for the CK release entry in experiment [3] and in experiment [4] were “significant reduction” and “no significant effect”, respectively. Further, the LDH release entry in experiment [3] is listed as “significant reduction”; in experiment [4], “no significant effect”. The “inhibition of TLR4 mRNA production” value in experiment [5] is on record as 2 fold. In experiment [6], the “inhibition of IL-1β mRNA production” value came to 1.3 fold.
